Literature values, collected in US6346511B1, “Pharmaceutical composition comprising cyclosporin” (Panacea Biotec Limited, priority 1997, dated 2002).

Tested on: normal epithelial tissue and Peyer's patch tissue of guinea pigs
Details: in vitro, compared to the commercially available drinking solution

factor by which absorption of Cyclosporine was raised: 5-6
Substance: Choleic acid
